Results taken from patent US10196390B2, “TYK2 inhibitors and uses thereof” (Nimbus Lakshmi, Inc., priority 2014, dated 2019).

How the values were obtained:
[1] = target: JAK2 (Homo sapiens (Human), UniProt O60674); test: JAK2 activity inhibition assay (radioactive kinase assay / Caliper assay); assay type: biochemical; settings: read-out: JAK2 Ki
Summary of the method: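 Reaction ran 25 min at 28° C after adding peptide/ATP mix (10 mM MgCl2) to compound and enzyme in HEPES pH 7.5 buffer with Brij-35, Triton and EGTA. EDTA stop, then microfluidic off-chip separation quantified phosphorylated peptide.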

[2] = target: TYK2 (Homo sapiens (Human), UniProt P29597); test: Tyk2 activity inhibition assay (radioactive kinase assay / Caliper assay); assay type: biochemical
Summary of the method: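 Two formats were used. Caliper off-chip mobility shift read phosphorylated peptide 30 (3 uM) after 25 min at 28° C with 9.75 nM TYK2 and ATP at 16 uM or 1 mM. Radioactive assay: 10 μM 33P-ATP, 20 μM peptide, 120 min room temp, P81 filter counting.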

TYK2, sequence (P29597 whole entry): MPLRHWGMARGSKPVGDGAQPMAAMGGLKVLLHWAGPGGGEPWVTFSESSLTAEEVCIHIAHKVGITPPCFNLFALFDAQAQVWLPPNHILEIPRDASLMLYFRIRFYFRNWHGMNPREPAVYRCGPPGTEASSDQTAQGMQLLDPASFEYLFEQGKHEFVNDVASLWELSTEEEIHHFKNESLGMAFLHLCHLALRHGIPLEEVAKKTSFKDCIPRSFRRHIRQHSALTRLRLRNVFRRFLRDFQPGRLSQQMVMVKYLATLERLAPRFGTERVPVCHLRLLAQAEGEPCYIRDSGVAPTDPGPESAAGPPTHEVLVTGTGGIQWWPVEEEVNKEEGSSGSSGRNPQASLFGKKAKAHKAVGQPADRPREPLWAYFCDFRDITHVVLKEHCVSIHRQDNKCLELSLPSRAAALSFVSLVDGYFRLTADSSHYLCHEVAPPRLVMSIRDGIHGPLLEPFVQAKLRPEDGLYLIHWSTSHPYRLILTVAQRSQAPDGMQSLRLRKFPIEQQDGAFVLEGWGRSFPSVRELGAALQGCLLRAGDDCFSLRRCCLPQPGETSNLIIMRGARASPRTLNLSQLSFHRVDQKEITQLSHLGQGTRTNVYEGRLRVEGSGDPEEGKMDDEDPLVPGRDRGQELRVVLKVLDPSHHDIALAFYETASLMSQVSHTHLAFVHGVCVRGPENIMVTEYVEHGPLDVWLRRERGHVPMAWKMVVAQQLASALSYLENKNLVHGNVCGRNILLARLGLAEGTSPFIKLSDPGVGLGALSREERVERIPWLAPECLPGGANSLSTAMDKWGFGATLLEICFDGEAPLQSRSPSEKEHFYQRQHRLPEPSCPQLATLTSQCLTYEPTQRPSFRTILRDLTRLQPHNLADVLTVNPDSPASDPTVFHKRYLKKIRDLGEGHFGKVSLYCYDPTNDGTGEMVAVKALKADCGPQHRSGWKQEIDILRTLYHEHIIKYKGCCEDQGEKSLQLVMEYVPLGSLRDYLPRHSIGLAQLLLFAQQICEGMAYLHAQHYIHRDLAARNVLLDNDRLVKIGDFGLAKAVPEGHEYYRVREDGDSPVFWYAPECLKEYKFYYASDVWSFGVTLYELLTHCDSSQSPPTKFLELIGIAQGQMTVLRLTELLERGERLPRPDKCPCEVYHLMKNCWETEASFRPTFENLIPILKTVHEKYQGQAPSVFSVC
JAK2, sequence (O60674 whole entry): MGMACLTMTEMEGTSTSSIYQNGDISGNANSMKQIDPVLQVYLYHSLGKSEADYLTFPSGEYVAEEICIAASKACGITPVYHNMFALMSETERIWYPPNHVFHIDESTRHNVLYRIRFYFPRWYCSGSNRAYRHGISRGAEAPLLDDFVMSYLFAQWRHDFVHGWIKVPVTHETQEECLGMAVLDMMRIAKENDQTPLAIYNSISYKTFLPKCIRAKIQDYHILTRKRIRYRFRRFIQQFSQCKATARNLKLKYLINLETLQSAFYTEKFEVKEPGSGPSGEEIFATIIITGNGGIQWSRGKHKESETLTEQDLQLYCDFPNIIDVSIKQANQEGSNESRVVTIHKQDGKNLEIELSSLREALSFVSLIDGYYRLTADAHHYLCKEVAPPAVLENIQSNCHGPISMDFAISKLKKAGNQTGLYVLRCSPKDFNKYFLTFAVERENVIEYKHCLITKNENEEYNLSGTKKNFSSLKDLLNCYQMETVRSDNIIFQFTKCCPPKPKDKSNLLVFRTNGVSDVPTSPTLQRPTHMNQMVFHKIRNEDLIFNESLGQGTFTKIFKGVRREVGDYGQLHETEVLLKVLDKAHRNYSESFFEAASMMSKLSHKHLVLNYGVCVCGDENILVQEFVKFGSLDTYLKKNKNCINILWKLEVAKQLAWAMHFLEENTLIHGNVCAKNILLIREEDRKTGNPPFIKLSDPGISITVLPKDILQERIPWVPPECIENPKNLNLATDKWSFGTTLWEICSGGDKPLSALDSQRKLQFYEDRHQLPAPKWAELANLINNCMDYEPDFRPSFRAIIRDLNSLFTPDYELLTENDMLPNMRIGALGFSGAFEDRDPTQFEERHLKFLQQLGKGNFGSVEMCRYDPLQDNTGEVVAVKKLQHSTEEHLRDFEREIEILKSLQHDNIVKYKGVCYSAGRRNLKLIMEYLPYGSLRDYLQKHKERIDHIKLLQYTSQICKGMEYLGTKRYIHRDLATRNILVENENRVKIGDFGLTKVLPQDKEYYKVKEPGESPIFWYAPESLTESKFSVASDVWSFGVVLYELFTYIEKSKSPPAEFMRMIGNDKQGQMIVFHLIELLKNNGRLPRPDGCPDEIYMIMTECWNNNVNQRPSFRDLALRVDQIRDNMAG

SMILES	Ki [1] [nM]	Ki [2] [nM]
O=C1NCc2nc(-c3c(F)cccc3F)cc(Nc3ccc(C(=O)N4CCOCC4)nc3)c21 [Compound I-280, 2-(2,6-difluorophenyl)-4-((6-(morpholine-4-carbonyl)pyridin-3-yl)amino)-6,7-dihydro-5H-pyrrolo[3,4-b]pyridin-5-one]	100 to 1000	10 to 100
N[C@@H]1CCCN(c2ccc(Nc3cc(-c4c(F)cccc4F)nc4c3C(=O)NC4)nc2)C1 [Compound I-159, (R)-4-((5-(3-aminopiperidin-1-yl)pyridin-2-yl)amino)-2-(2,6-difluorophenyl)-6,7-dihydro-5H-pyrrolo[3,4-b]pyridin-5-one]	< 10	< 10
CCNC(=O)Cc1ccc(Nc2nc(-c3c(F)cncc3F)nc3c2C(=O)NC3)cc1 [Compound I-208, 2-(4-((2-(3,5-difluoropyridin-4-yl)-5-oxo-6,7-dihydro-5H-pyrrolo[3,4-d]pyrimidin-4-yl)amino)phenyl)-N-ethylacetamide]	> 1000	100 to 1000
O=C(NCC1CC1)c1ccc(Nc2cc(-c3c(F)cccc3F)nc3c2C(=O)NC3)nc1 [Compound I-226, N-(cyclopropylmethyl)-6-((2-(2,6-difluorophenyl)-5-oxo-6,7-dihydro-5H-pyrrolo[3,4-b]pyridin-4-yl)amino)nicotinamide]	10 to 100	< 10
O=C(Cc1ccc(Nc2nc(-c3c(F)cccc3F)nc3c2C(=O)NC3)cc1)N[C@@H]1CCCNC1 [Compound I-61, (R)-2-(4-((2-(2,6-difluorophenyl)-5-oxo-6,7-dihydro-5H-pyrrolo[3,4-d]pyrimidin-4-yl)amino)phenyl)-N-(piperidin-3-yl)acetamide]	100 to 1000	< 10
O=C1NCc2nc(-c3c(F)cccc3F)nc(Nc3ccc(C(=O)N4CCC4)cc3)c21 [Compound I-158, 4-((4-(azetidine-1-carbonyl)phenyl)amino)-2-(2,6-difluoro-phenyl)-6,7-dihydro-5H-pyrrolo[3,4-d]pyrimidin-5-one]	100 to 1000	10 to 100
CN1CCNC(C)(c2ccc(Nc3nc(-c4c(F)cccc4F)nc4c3C(=O)NC4)cc2)C1=O (centres unmarked) [Compound I-215, 2-(2,6-difluorophenyl)-4-((4-(2,4-dimethyl-3-oxopiperazin-2-yl)phenyl)amino)-6,7-dihydro-5H-pyrrolo[3,4-d]pyrimidin-5-one]	10 to 100	< 10
N[C@H]1CCCN(c2ccc(Nc3cc(-c4c(F)cccc4F)nc4c3C(=O)NC4)nc2)C1 [Compound I-143, (S)-4-((5-(3-aminopiperidin-1-yl)pyridin-2-yl)amino)-2-(2,6-difluorophenyl)-6,7-dihydro-5H-pyrrolo[3,4-b]pyridin-5-one]	10 to 100	< 10
O=C(Cc1ccc(Nc2nc(-c3c(F)cccc3C(F)(F)F)nc3c2C(=O)NC3)cc1)NC1CCNCC1 [Compound I-83, 2-(4-((2-(2-fluoro-6-(trifluoromethyl)phenyl)-5-oxo-6,7-dihydro-5H-pyrrolo[3,4-d]pyrimidin-4-yl)amino)phenyl)-N-(piperidin-4-yl)acetamide]	100 to 1000	10 to 100
N#Cc1cccc(F)c1-c1cc(Nc2ccc(N3CCOCC3)cn2)c2c(n1)CNC2=O [Compound I-281, 3-fluoro-2-(4-((5-morpholinopyridin-2-yl)amino)-5-oxo-6,7-dihydro-5H-pyrrolo[3,4-b]pyridin-2-yl)benzonitrile]	< 10	< 10
CC(C(=O)N1CCCCC1)c1ccc(Nc2nc(-c3c(F)cccc3F)nc3c2C(=O)NC3)cc1 (centres unmarked) [Compound I-198, 2-(2,6-difluorophenyl)-4-((4-(1-oxo-1-(piperidin-1-yl)propan-2-yl)phenyl)amino)-6,7-dihydro-5H-pyrrolo[3,4-d]pyrimidin-5-one]	100 to 1000	< 10
CN1C(=O)[C@](C)(c2ccc(Nc3nc(-c4c(F)cccc4F)nc4c3C(=O)NC4)cc2)CC1(C)C [Compound I-221, (S)-2-(2,6-difluorophenyl)-4-((4-(1,3,5,5-tetramethyl-2-oxopyrrolidin-3-yl)phenyl)amino)-6,7-dihydro-5H-pyrrolo[3,4-d]pyrimidin-5-one]	10 to 100	< 10
COCCOc1ccc(Nc2nc(-c3c(F)cccc3F)nc3c2C(=O)NC3)cc1 [Compound I-185, 2-(2,6-difluorophenyl)-4-((4-(2-methoxy-ethoxy)-phenyl)amino)-6,7-dihydro-5H-pyrrolo[3,4-d]pyrimidin-5-one]	100 to 1000	< 10
COc1ccc(Nc2cc(-c3c(F)cccc3Cl)nc3c2C(=O)NC3)nc1 [Compound I-145, 2-(2-chloro-6-fluorophenyl)-4-((5-methoxypyridin-2-yl)amino)-6,7-dihydro-5H-pyrrolo[3,4-b]pyridin-5-one]	10 to 100	< 10
O=C1NCc2nc(-c3c(F)cccc3F)nc(N[C@H]3C[C@H](C(=O)O)C3)c21 [Compound I-130, (1r,3r)-3-((2-(2,6-difluorophenyl)-5-oxo-6,7-dihydro-5H-pyrrolo[3,4-d]pyrimidin-4-yl)amino)cyclobutane-1-carboxylic Acid]	> 1000	> 1000
O=C(Cc1ccc(Nc2nc(-c3c(F)cccc3Cl)nc3c2C(=O)NC3)cc1)N[C@@H]1CCNC1 [Compound I-81, (R)-2-(4-((2-(2-chloro-6-fluorophenyl)-5-oxo-6,7-dihydro-5H-pyrrolo[3,4-d]pyrimidin-4-yl)amino)phenyl)-N-(pyrrolidin-3-yl)acetamide]	100 to 1000	< 10
O=C(NCCN1CCOCC1)c1ccc(Nc2nc(-c3c(F)cccc3F)nc3c2C(=O)NC3)cc1 [Compound I-127, 4-((2-(2,6-difluorophenyl)-5-oxo-6,7-dihydro-5H-pyrrolo[3,4-d]pyrimidin-4-yl)amino)-N-(2-morpholinoethyl)benzamide]	10 to 100	< 10
O=C1NCc2nc(-c3c(F)cccc3F)nc(Nc3ccc([C@H]4CCN(CCN5CCOCC5)C4=O)cc3)c21 [Compound I-122, (R)-2-(2,6-difluorophenyl)-4-((4-(1-(2-morpholinoethyl)-2-oxopyrrolidin-3-yl)phenyl)amino)-6,7-dihydro-5H-pyrrolo[3,4-d]pyrimidin-5-one]	100 to 1000	< 10
O=C(Cc1ccc(Nc2nc(-c3c(F)cccc3F)nc3c2C(=O)NC3)cc1)NCC1CNC1 [Compound I-72, N-(azetidin-3-ylmethyl)-2-(4-((2-(2,6-difluoro-phenyl)-5-oxo-6,7-dihydro-5H-pyrrolo[3,4-d]pyrimidin-4-yl)amino)-phenyl)acetamide]	100 to 1000	< 10
CN(CC(C)(C)O)C(=O)Cc1ccc(Nc2nc(-c3c(F)cccc3F)nc3c2C(=O)NC3)cc1 [Compound I-193, 2-(4-((2-(2,6-difluorophenyl)-5-oxo-6,7-dihydro-5H-pyrrolo[3,4-d]pyrimidin-4-yl)amino)phenyl)-N-(2-hydroxy-2-methylpropyl)-N-methylacetamide]	100 to 1000	< 10
CC1(C)CN(c2ccc(Nc3cc(-c4c(F)cccc4F)nc4c3C(=O)NC4)nc2)CC[C@H]1O [Compound I-268, (R)-2-(2,6-difluorophenyl)-4-((5-(4-hydroxy-3,3-dimethyl-piperidin-1-yl)pyridin-2-yl)amino)-6,7-dihydro-5H-pyrrolo[3,4-b]pyridin-5-one]	10 to 100	< 10
CCOC(=O)Cc1ccc(Nc2nc(-c3c(Cl)cccc3Cl)nc3c2C(=O)NC3)cc1 [Compound I-5, ethyl 2-(4-((2-(2,6-dichlorophenyl)-5-oxo-6,7-dihydro-5H-pyrrolo[3,4-d]pyrimidin-4-yl)amino)phenyl)acetate]	100 to 1000	< 10
O=C(Cc1ccc(Nc2nc(-c3c(F)cccc3F)nc3c2C(=O)NC3)cc1)N[C@@H]1CCNC1 [Compound I-73, (R)-2-(4-((2-(2,6-difluorophenyl)-5-oxo-6,7-dihydro-5H-pyrrolo[3,4-d]pyrimidin-4-yl)amino)phenyl)-N-(pyrrolidin-3-yl)acetamide]	100 to 1000	< 10
CCNC(=O)Cn1cc(Nc2nc(-c3c(F)cccc3F)nc3c2C(=O)NC3)cn1 [Compound I-69, 2-(4-((2-(2,6-difluorophenyl)-5-oxo-6,7-dihydro-5H-pyrrolo[3,4-d]pyrimidin-4-yl)amino)-1H-pyrazol-1-yl)-N-ethylacetamide]	> 1000	10 to 100
O=C1NCc2nc(-c3c(F)cccc3F)nc(Nc3ccc(CC(=O)N4CCOC[C@@H]4C(=O)O)cc3)c21 [Compound I-194, (R)-4-(2-(4-((2-(2,6-difluorophenyl)-5-oxo-6,7-dihydro-5H-pyrrolo[3,4-d]pyrimidin-4-yl)amino)phenyl)acetyl)morpholine-3-carboxylic Acid]	100 to 1000	10 to 100
O=C1NCc2nc(-c3c(F)cccc3F)nc(Nc3ccc(C(=O)N4CC(O)C4)cc3)c21 [Compound I-168, 2-(2,6-difluorophenyl)-4-((4-(3-hydroxyazetidine-1-carbo-nyl)phenyl)amino)-6,7-dihydro-5H-pyrrolo[3,4-d]pyrimidin-5-one]	100 to 1000	< 10
O=C1NCc2nc(-c3c(F)cccc3F)nc(Nc3ccc([C@H]4CCN(C5CCC5)C4=O)cc3)c21 [Compound I-118, (R)-4-((4-(1-cyclobutyl-2-oxopyrrolidin-3-yl)phenyl)amino)-2-(2,6-difluorophenyl)-6,7-dihydro-5H-pyrrolo[3,4-d]pyrimidin-5-one]	100 to 1000	< 10
COCCC1(c2ccc(Nc3nc(-c4c(F)cccc4F)nc4c3C(=O)NC4)cc2)CCNC1=O (centres unmarked) [Compound I-116, 2-(2,6-difluorophenyl)-4-((4-(3-(2-methoxyethyl)-2-oxopyrrolidin-3-yl)phenyl)amino)-6,7-dihydro-5H-pyrrolo[3,4-d]pyrimidin-5-one]	10 to 100	< 10
